The source of these data is publication PMC7363133, “The structure and reactivity of the HoxEFU complex from the cyanobacterium Synechocystis sp. PCC 6803” (The Journal of Biological Chemistry, 2020).

The experiment has as its target T1, HoxEFU (Synechocystis sp. PCC 6803, UniProt P74024).
T1 construct: gene hoxF; heterotrimeric diaphorase subcomplex without HoxYH; Strep-II tag with Ser-Ala linker at C-terminus of HoxF; codon-optimised, pET21, E. coli BL21 deltaiscR; anaerobic purification; with Bidirectional [NiFe] hydrogenase diaphorase subunit HoxE; Bidirectional [NiFe] hydrogenase diaphorase subunit HoxU
T1 sequence (P74024 1-533): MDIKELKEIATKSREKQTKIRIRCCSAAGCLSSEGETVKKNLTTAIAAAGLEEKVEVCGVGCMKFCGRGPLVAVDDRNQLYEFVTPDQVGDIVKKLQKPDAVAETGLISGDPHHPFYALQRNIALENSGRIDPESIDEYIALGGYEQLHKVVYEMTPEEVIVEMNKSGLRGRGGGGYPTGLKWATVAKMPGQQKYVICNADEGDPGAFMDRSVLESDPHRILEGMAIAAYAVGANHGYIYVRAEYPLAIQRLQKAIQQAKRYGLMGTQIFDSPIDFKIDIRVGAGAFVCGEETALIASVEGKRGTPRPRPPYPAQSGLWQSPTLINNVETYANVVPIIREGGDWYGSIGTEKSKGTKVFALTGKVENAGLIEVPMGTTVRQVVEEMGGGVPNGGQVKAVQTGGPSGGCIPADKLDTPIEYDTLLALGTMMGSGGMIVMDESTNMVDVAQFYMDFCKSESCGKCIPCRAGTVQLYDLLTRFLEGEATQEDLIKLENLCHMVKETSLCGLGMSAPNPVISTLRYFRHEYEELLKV
T1 sequence (P74025 1-173 partner): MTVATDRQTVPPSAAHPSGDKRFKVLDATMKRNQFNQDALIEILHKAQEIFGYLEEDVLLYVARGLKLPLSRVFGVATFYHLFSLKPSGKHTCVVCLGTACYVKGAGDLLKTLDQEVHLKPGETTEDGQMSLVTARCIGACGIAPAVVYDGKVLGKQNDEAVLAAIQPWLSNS
T1 sequence (P74022 1-238 partner): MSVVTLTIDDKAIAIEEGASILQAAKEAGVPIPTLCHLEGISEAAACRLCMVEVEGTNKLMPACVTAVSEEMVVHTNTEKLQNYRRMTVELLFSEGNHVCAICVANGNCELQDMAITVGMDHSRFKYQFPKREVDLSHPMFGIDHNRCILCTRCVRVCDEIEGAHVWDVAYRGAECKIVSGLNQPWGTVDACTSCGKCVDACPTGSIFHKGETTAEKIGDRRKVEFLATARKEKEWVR
The experiment can be described thus: intrinsic protein fluorescence/FRET titration, equilibrium binding isotherm. The note with it: Hill fit (cooperative); excitation 285 nm, emission 348 nm.

`NC(=O)C1=CN([C@@H]2O[C@H](COP(=O)(O)OP(=O)(O)OC[C@H]3O[C@@H](n4cnc5c(N)ncnc54)[C@H](O)[C@@H]3O)[C@@H](O)[C@H]2O)C=CC1` [NADH] came in with a Kd of 32 µM. In the case of `NC(=O)c1ccc[n+]([C@@H]2O[C@H](COP(=O)(O)OP(=O)(O)OC[C@H]3O[C@@H](n4cnc5c(N)ncnc54)[C@H](OP(=O)(O)O)[C@@H]3O)[C@@H](O)[C@H]2O)c1` [NADP^+] it was 1950 ± 270 µM; in that of `NC(=O)c1ccc[n+]([C@@H]2O[C@H](COP(=O)(O)OP(=O)(O)OC[C@H]3O[C@@H](n4cnc5c(N)ncnc54)[C@H](O)[C@@H]3O)[C@@H](O)[C@H]2O)c1` [NAD^+], 1350 ± 70 µM.

One may read the Kd as the equilibrium constant for the complex coming apart. A lower Kd goes with a tighter complex.
